# From patent US20050197364A1, “Amide compounds as ion channel ligands and uses thereof” (priority 2003, published 2005)
# Test system: VR1 receptor
# Assay: High throughput calcium imaging assay (Fura2, Flex Station) of VR1 antagonists, pH 5.1 stimulus
# Format: cell-based
# Settings: 1 uM compound; inhibition of calcium ion influx induced by capsaicin stimulation
# Protocol: Therefore the functional activity of compounds at the VR1 receptor may be determined by measuring changes in intracellular calcium levels in 293 cells expressing capsaicin-insensitive VR1 receptor variants. A dual wavelength ratiometric dye, Fura2, was used as an indicator of relative levels of calcium ions in a 96 well format using a bench top scanning fluorometer with integrated fluidics and temperature control (Flex Station, Molecular Devices).
# 293 cells were grown on PDL coated 96-well black-walled plates, in the presence of a DMEM medium containing 5% Penstrep, 5% Glutamax, 200 ug/mL Hygromycin, 5 μg/mL Blasticide and 10% heat inactivated FBS. Prior to assay, the cells were loaded with 5 μg/mL Fura2 in normal saline solution at 37° C. for 40 minutes. Cells were then washed with normal saline to remove the dye.
# The assay consists of two stages; a pre-treatment phase followed by a treatment phase.
# 50 μl of a compound solution was added to the cells (Pre-treatment). Immediately following, 50 μl of the test compound in a saline solution at pH 5.1 was added. Fura2 was excited at 340 and 380 nM to indicate relative calcium concentration. Changes in wavelength measurements were made throughout the course of the experiment in 4 second intervals over a period of 3 minutes. Responses were measured as peak fluorescence ratio after test compound addition minus baseline fluorescence ratio prior to pre-treatment and were calculated using SoftMaxPro softwareData were expressed as percentage inhibition calculated using Excel as follows: [formula]
row,SMILES,% Inhibition @ 1 uM
1,COc1cc(C(=O)Nc2ccnc(Cl)c2)ccc1-c1ncccc1Cl [Compound 231],+ (“+” compound exhibited 0-25% inhibition of calcium ion influx induced by capsaicin stimulation.)
2,O=C(Nc1ccc2c(c1)OCO2)c1ccc(-c2ncccc2Cl)cc1 [Compound 34],+ (compound exhibited 0-25% inhibition of calcium ion influx induced by capsaicin stimulation)
3,O=C(Nc1ccc(C(F)(F)F)cn1)c1ccc(-c2ncccc2Cl)c(F)c1 [Compound 149],+ + (compound exhibited 25-50% inhibition of calcium ion influx induced by capsaicin stimulation)
4,COc1cc(C(=O)Nc2ccc(F)cc2[N+](=O)[O-])ccc1-c1ncccc1Cl [Compound 210],+ + + + (“+ + + +” compound exhibited 75% or greater inhibition of calcium ion influx induced by capsaicin stimulation.)
5,N#Cc1cccc(NC(=O)c2ccc(-c3ncccc3Cl)cc2F)c1 [Compound 84],+ + + + (compound exhibited 75% or greater inhibition of calcium ion influx induced by capsaicin stimulation)
6,O=C(Nc1ccc(N2CCNCC2)cc1)c1ccc(-c2ncccc2Cl)cn1 [Compound 317],+ (“+” compound exhibited 0-25% inhibition of calcium ion influx induced by capsaicin stimulation.)
7,COc1cc(C(=O)Nc2cc(C)nc(C)n2)ccc1-c1ncccc1Cl [Compound 232],+ (“+” compound exhibited 0-25% inhibition of calcium ion influx induced by capsaicin stimulation.)
8,CCCOc1ccc(NC(=O)c2ccc(-c3ncccc3Cl)c(F)c2)cc1 [Compound 173],+ + (compound exhibited 25-50% inhibition of calcium ion influx induced by capsaicin stimulation)
9,O=C(Nc1ccnc(Cl)c1)c1ccc(-c2ncccc2Cl)cn1 [Compound 325],+ (“+” compound exhibited 0-25% inhibition of calcium ion influx induced by capsaicin stimulation.)
10,O=C(Nc1nccs1)c1ccc(-c2ncccc2Cl)cc1 [Compound 38],+ (compound exhibited 0-25% inhibition of calcium ion influx induced by capsaicin stimulation)
11,O=C(Nc1ccc(F)c(F)c1)c1ccc(-c2ncccc2Cl)cc1 [Compound 279],+ (“+” compound exhibited 0-25% inhibition of calcium ion influx induced by capsaicin stimulation.)
12,O=C(Nc1ccc2ncccc2c1)c1ccc(-c2ncccc2Cl)c(F)c1 [Compound 156],+ + + + (compound exhibited 75% or greater inhibition of calcium ion influx induced by capsaicin stimulation)
13,COc1cccc(NC(=O)c2ccc(-c3ncccc3Cl)cc2F)c1 [Compound 74],+ (compound exhibited 0-25% inhibition of calcium ion influx induced by capsaicin stimulation)
14,O=C(Nc1ccc(OC(F)(F)F)cc1)c1ccc(-c2ncccc2Cl)c(F)c1 [Compound 175],+ + (compound exhibited 25-50% inhibition of calcium ion influx induced by capsaicin stimulation)
15,CC(C)c1ccc(NC(=O)c2ccc(-c3ncccc3Cl)cc2)cc1 [Compound 25],+ + + + (compound exhibited 75% or greater inhibition of calcium ion influx induced by capsaicin stimulation)
16,O=C(Nc1ccc2ccccc2c1)c1ccc(-c2ncccc2Cl)cn1 [Compound 331],+ + (“+ +” compound exhibited 25-50% inhibition of calcium ion influx induced by capsaicin stimulation.)
17,N#Cc1cccc(NC(=O)c2ccc(-c3ncccc3Cl)cn2)c1 [Compound 299],+ + + + (“+ + + +” compound exhibited 75% or greater inhibition of calcium ion influx induced by capsaicin stimulation.)
18,O=C(Nc1ccc2[nH]ccc2c1)c1ccc(-c2ncccc2Cl)cc1 [Compound 4],+ + + + (compound exhibited 75% or greater inhibition of calcium ion influx induced by capsaicin stimulation)

row,SMILES,% Inhibition @ 1 uM
1,N#Cc1ccccc1NC(=O)c1ccc(-c2ncccc2Cl)cc1 [Compound 11],+ (compound exhibited 0-25% inhibition of calcium ion influx induced by capsaicin stimulation)
2,COc1ccc(NC(=O)c2ccc(-c3ncccc3Cl)c(OC)c2)cn1 [Compound 230],+ + (“+ +” compound exhibited 25-50% inhibition of calcium ion influx induced by capsaicin stimulation.)
3,CCCCc1ccc(NC(=O)c2ccc(-c3ncccc3Cl)c(OC)c2)cc1 [Compound 204],+ + (“+ +” compound exhibited 25-50% inhibition of calcium ion influx induced by capsaicin stimulation.)
4,O=C(Nc1ccccc1O)c1ccc(-c2ncccc2Cl)cc1F [Compound 67],+ (compound exhibited 0-25% inhibition of calcium ion influx induced by capsaicin stimulation)
5,O=C(Nc1ccc(Cl)cc1Cl)c1ccc(-c2ncccc2Cl)cc1 [Compound 16],+ (compound exhibited 0-25% inhibition of calcium ion influx induced by capsaicin stimulation)
6,CCCc1ccccc1NC(=O)c1ccc(-c2ncccc2Cl)c(OC)c1 [Compound 195],+ + (compound exhibited 25-50% inhibition of calcium ion influx induced by capsaicin stimulation)
7,O=C(Nc1cc[nH]n1)c1ccc(-c2ncccc2Cl)c(F)c1 [Compound 158],+ (compound exhibited 0-25% inhibition of calcium ion influx induced by capsaicin stimulation)
8,CC(C)(C)NC(=O)c1ccc(-c2ncccc2Cl)c(F)c1 [Compound 110],+ (compound exhibited 0-25% inhibition of calcium ion influx induced by capsaicin stimulation)
9,O=C(Nc1ccc(F)cc1)c1ccc(-c2ncccc2Cl)cn1 [Compound 291],+ (“+” compound exhibited 0-25% inhibition of calcium ion influx induced by capsaicin stimulation.)
10,COc1ccccc1NC(=O)c1ccc(-c2ncccc2Cl)c(OC)c1 [Compound 194],+ + (compound exhibited 25-50% inhibition of calcium ion influx induced by capsaicin stimulation)
11,O=C(Nc1cccc(Cl)c1)c1ccc(-c2ncccc2Cl)c(F)c1 [Compound 116],+ (compound exhibited 0-25% inhibition of calcium ion influx induced by capsaicin stimulation)
12,CCOc1ccc(NC(=O)c2ccc(-c3ncccc3Cl)c(OC)c2)cc1 [Compound 256],+ (“+” compound exhibited 0-25% inhibition of calcium ion influx induced by capsaicin stimulation.)
13,COc1cc(C(=O)Nc2cccc(C(F)(F)F)c2)ccc1-c1ncccc1Cl [Compound 250],+ + (“+ +” compound exhibited 25-50% inhibition of calcium ion influx induced by capsaicin stimulation.)
14,O=C(Nc1ccc(Cl)nc1)c1ccc(-c2ncccc2Cl)cc1 [Compound 31],+ (compound exhibited 0-25% inhibition of calcium ion influx induced by capsaicin stimulation)
15,COc1cc(C(=O)Nc2cc(C)ccn2)ccc1-c1ncccc1Cl [Compound 223],+ + + + (“+ + + +” compound exhibited 75% or greater inhibition of calcium ion influx induced by capsaicin stimulation.)
16,O=C(Nc1ccc2ncccc2c1)c1ccc(-c2ncccc2Cl)cn1 [Compound 327],+ (“+” compound exhibited 0-25% inhibition of calcium ion influx induced by capsaicin stimulation.)
17,O=C(Nc1ccc2ncccc2c1)c1ccc(-c2ncccc2Cl)cc1F [Compound 107],+ + (compound exhibited 25-50% inhibition of calcium ion influx induced by capsaicin stimulation)
18,O=C(Nc1ccc(C(F)(F)F)cn1)c1ccc(-c2ncccc2Cl)cc1F [Compound 97],+ (compound exhibited 0-25% inhibition of calcium ion influx induced by capsaicin stimulation)

# Same assay, conditions: 1 uM compound; inhibition of calcium ion influx induced by capsaicin stimulation; 1 µM
row,SMILES,% Inhibition @ 1 uM
1,O=C(Nc1ccc2ccccc2c1)c1ccc(-c2ncccc2Cl)cc1 [Compound 57],+ + + + (compound exhibited 75% or greater inhibition of calcium ion influx induced by capsaicin stimulation)
